The values below are quoted from earlier work in US20080233219A1, “Composition for diet comprising plant essential oil as active ingredient, sheet type composition for diet comprising thereof, percutaneous pharmaceutical agent for diet comprising thereof, and method for producing thereof” (NATURE TECHNOLOGY INC., priority 2005, published 2008).

For series [1] the following is noted: in three month.
For series [2] the following is noted: in vivo.

For the molecule `OC1(c2ccc(Cl)cc2)c2ccccc2C2=NCCN21` (centres unmarked) [Mazindol], in series [1], the “gradual weight loss, average” value is reported as “about 4.5 kg”. Also, in series [2], the side effects entry was “not serious ones except cotton mouth, astriction, indigestible feeling”.
